Measured values as given in article PMC4463742, “A new family of StART domain proteins at membrane contact sites has a role in ER-PM sterol transport” (eLife, 2015).
pKd: −log10 of the molar value.

Key:
[1] = target: T1, Ysp2p (Saccharomyces cerevisiae, UniProt Q06681); assay: competition of tryptophan-DHE FRET with purified domain; type: binding
T1 construct: gene YSP2; StART-like domains Ysp2S1 (829-1027) and Ysp2S2 (1027-1244), His-tagged, each measured

[2] = target: T1, Ysp2p; assay: tryptophan-DHE FRET with purified domain; type: binding
[3] = target: T2, Lam4p (Saccharomyces cerevisiae, UniProt P38800); assay: biochemical
T2 construct: gene LAM4
T2 sequence (P38800 946-1155): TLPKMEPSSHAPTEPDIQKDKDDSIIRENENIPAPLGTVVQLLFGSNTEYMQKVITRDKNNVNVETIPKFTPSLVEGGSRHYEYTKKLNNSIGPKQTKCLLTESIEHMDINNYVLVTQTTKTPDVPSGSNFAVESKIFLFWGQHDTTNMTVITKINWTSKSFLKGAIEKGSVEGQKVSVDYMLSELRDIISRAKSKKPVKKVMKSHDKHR

[4] = target: T2, Lam4p; assay: co-purification of […]-labelled cholesterol from HL60 cells (TLC); competition of DHE FRET; type: binding

T1 sequence (Q06681 829-1244): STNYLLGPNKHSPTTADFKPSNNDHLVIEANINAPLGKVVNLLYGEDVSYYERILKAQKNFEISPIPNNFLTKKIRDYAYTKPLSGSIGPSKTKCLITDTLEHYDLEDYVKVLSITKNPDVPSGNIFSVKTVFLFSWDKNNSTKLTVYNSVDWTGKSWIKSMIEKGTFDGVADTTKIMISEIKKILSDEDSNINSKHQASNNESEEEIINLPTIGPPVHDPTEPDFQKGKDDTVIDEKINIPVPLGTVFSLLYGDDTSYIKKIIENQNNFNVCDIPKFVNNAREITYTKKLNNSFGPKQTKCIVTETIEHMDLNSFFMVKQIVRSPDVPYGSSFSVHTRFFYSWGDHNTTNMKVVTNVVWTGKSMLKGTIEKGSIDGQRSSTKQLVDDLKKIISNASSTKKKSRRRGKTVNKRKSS

SMILES: CC(C)[C@@H](C)/C=C/[C@@H](C)[C@H]1CC[C@H]2C3=CC=C4C[C@@H](O)CC[C@]4(C)[C@H]3CC[C@]12C [erg, ergosterol]
- competition of tryptophan-DHE FRET with purified domain [1]: All four purified StART-like domains bound both cholesterol (the predominant sterol in mammals) and ergosterol

SMILES: CC(C)[C@@H](C)/C=C/[C@@H](C)[C@H]1CC[C@H]2C3=CC=C4C[C@@H](O)CC[C@]4(C)C3=CC[C@]12C [DHE, dehydroergosterol]
- tryptophan-DHE FRET with purified domain [2]: these proteins all produced strong FRET signals with DHE
- pKd [3]: 6.30

SMILES: CC(C)CCC[C@@H](C)[C@H]1CC[C@H]2[C@@H]3CC=C4C[C@@H](O)CC[C@]4(C)[C@H]3CC[C@]12C [chol, cholesterol]
- co-purification of 14C-labelled cholesterol from HL60 cells (TLC); competition o [4]: Lam4S2 extracted cholesterol but no other lipids from labelled HL60 cells
- competition of tryptophan-DHE FRET with purified domain [1]: All four purified StART-like domains bound both cholesterol (the predominant sterol in mammals) and ergosterol
